The values that follow come from patent US20220280607A1, “Treatment of Heart Defects and Conditions in Pediatric Patients” (University of Pittsburgh - Of the Commonwealth System of …, priority 2019, published 2022).

Assay [1] relates to human fetal cardiomyocytes. The assay can be described thus: Cytokinesis failure in cultured human fetal cardiomyocytes (β-adrenergic receptor signaling pathway studies). The format is cell-based. Here is the method: Primary cardiomyocyte culture experiments: Neonatal (mouse or rat) cardiomyocytes or human fetal cardiomyocytes were plated in 4-well chamber slides pre-coated with fibronectin (10 μg/ml) at a density of 200,000 cells/well and cultured with DMEM/high glucose (for mouse and rat cardiomyocytes) or IMDM (for fetal human cardiomyocytes) containing 10% fetal bovine serum (FBS) and recombinant neuregulin 1 (rNRG1, 100 nanograms per milliliter (ng/ml)) overnight. All treatments and BrdU (30 micromolar (μM)) were added on the next day.
β-adrenergic receptor signaling pathway studies: Forskolin (10 μM), propranolol (10 μM), dobutamine (10 μM), or a combination of propranolol (10 μM) and dobutamine (10 μM) were added to the culture from day 1 to day 3. The cells were collected for examining gene expression or immunofluorescence microscopy at day 3.
Cardiomyocytes cultured on glass surfaces. […] The BrdU-positive nuclei, cell-cell boundaries (Pan-Cadherin antibody), and cardiomyocyte markers (α-actinin or troponin I antibody) were labeled by immunofluorescence. The stained cells were imaged under Nikon confocal microscope. The binucleated cardiomyocytes and all BrdU-positive cardiomyocytes were quantified using Fiji software.

Assay [2] relates to adult mouse heart after myocardial infarction. The assay can be described thus: Neonatal propranolol treatment followed by adult baseline analysis and myocardial infarction (LAD ligation) with cardiac MRI, AFOG histology and stereology. Type of assay: in vivo. Here is the method:
Mouse myocardial injury model: ICR mice were treated with propranolol (10 μg/g, 2 i.p. injections/day) from P1 to P12. Then, cardiac injury was induced to male mice via performing left anterior descending artery (LAD) ligation at the age of P40 to P60. Briefly, the mice were anesthetized with 4% isoflurane, intubated, and ventilated with a stroke volume of 225 microliters (μl) at 145 breaths/minute. The hearts were exposed by performing thoracotomy and the LAD coronary artery was tied with 8-0 nylon suture. After the chest was […] with 6-0 suture, bupivacaine (8 μg/g) was locally administered through subcutaneous injection. The mice were kept intubated without isoflurane at room temperature until waking up from the anesthesia. Bupivacaine (8 μg/g) was administered by subcutaneous injection in the following 3 days (1 day post injury (dpi) to 3 dpi). The heart function after LAD ligation was measured by cardiac MRI at 1-3 days post injury (dpi, acute injury period) and 10-12 dpi (recovery period), respectively.
Quantification of cardiomyocytes with unbiased stereology: Mouse hearts were washed in cardioplegia solution (PBS, […] potassium chloride (KCl)), weighed, and fixed with 3.7% formaldehyde at room temperature overnight. The hearts were then placed in 30% sucrose at 4° C. for 48 hours. The atria were cut off and the ventricles were embedded in OCT and sectioned on a Leica CM1950 cryostat in cross-sectional orientation (thickness 15 μm), resulting in 75-80 slides/heart with 4 sections each. For random systematic sampling we used a random number generator ranging between […] to determine the first slide and then selected every 17th slide for staining. Myocardial volume and scar were quantified by point count method on AFOG-stained sections. Briefly, tissue sections were stained with Acid fuchsin-orange G (AFOG; Polizzotti et al.) and photomicrographs were taken on a Leica MZ26 dissector microscope (objective lens 10×). Areas of myocardium (red after AFOG staining) and scar (blue after AFOG staining) were quantified using ImageJ (version 1.51s). The image was overlaid with a grid to determine area per point. The distance between selected sections was calculated (17th slide×4 sections/slide×15 μm section thickness). The LV myocardial volume was measured by counting the number of grids on both LV myocardium and the scar region. We used the optical dissector method to determine the volume density of cardiomyocyte nuclei. The optical dissector operates optimally at 3 μm distance between lookup and counting frames. Adult mouse hearts were sectioned with a cryostat set at 15 μm. Slides were stained with α-actinin and Hoechst and imaged with an A1R laser-scanning confocal microscope (×60 oil lens).
Briefly, the immunofluorescence stained sections were imaged using a Nikon A1R confocal microscope. We selected four random spots on the technically-best section from each slide and analyzed 20 random samples from each heart. The total number of positive cardiomyocyte nuclei per heart was counted and the mean per sample volume was calculated. Total number of cardiomyocytes (endowment) was calculated as: Number of cardiomyocytes=Number of cardiomyocyte nuclei/(Mono %+2×Bi %[…]+4×Tetra %).
Adult mouse cardiac MRI: Mice were anesthetized with 4% isoflurane mixed with room air in an induction box for 1 to 3 minutes. The depth of anesthesia was monitored by toe reflex, extension of limbs, and spine positioning. Once an appropriate depth of anesthesia was established, mice were placed on a custom-built mouse holder and the anesthesia was maintained by 1.5 to 2% isoflurane with 100% oxygen via a nose cone. […] The respiration waveform was automatically processed to detect inspiration, expiration, and respiration rate. In-vivo cardiac MRI (CMR) was carried out on a Bruker Biospec 7T/30 system (Bruker Biospin MRI, Billerica, Mass.) with the 35-mm quadrature coil for both transmission and reception.

Turning to `CC(C)NCC(O)COc1cccc2ccccc12` (stereo not shown) [propranolol, 1-naphthalen-1-yloxy-3-(propan-2-ylamino)propan-2-ol], the Ect2-positive midbodies entry in assay [1] (human fetal cardiomyocytes in cytokinesis, immunofluorescence microscopy, FIG. 14D) is given as “increased”. Further, the “block of the dobutamine-stimulated increase in cardiomyocyte cytokinesis failure” value in assay [1] (propranolol 10 μM + dobutamine 10 μM, human fetal cardiomyocytes, FIG. 14C) is given as “completely”. In assay [2] (12 dpi, AFOG staining, vs control, FIG. 13K), the “scar size, determined by histology” value is “not different”. In addition, the “region of myocardium affected by ischemia, visualized by LGE” value in assay [2] (after MI, vs control, FIG. 13D, 13E) is listed as “not different”. Also, in assay [2] (after MI, vs control, FIG. 13J), the relative systolic thickening result is given as “higher”. In addition, the “higher cardiomyocyte endowment after MI” value in assay [2] (determined by stereology, vs control, FIG. 13L) was determined as 30%. Moreover, the “increased cardiomyocyte endowment in adult hearts at baseline” value in assay [2] (propranolol 10 μg/g, 2 i.p. injections per day, P1-12, P42, FIG. 13A) was “persisted until adulthood”. For the same molecule, in assay [2] (propranolol P1-12, P60, FIG. 13B), the “cardiac function (ejection fraction) of adult hearts at baseline” value was “did not alter”. Also, in assay [2] (recovery phase, vs control, FIG. 13H, 13I), the “thinned region of the LV myocardium after myocardial infarction” value is given as “significantly smaller”. The molecule further came in with an MRI-measured ejection fraction in assay [2] (twelve days after MI (recovery phase), FIG. 13F, 13G) of 42%. The “infarct size by late gadolinium-enhancement vs control” value in assay [2] (two days after MI (acute phase), FIG. 13D, 13E) is reported as “same”. The “ejection fraction (MRI) vs control” value in assay [2] (two days after MI (acute phase), FIG. 13F, 13G) is “same”. Further, the “heart weight (heart weight to body weight ratio) after MI” value in assay [2] (vs control, FIG. 13M) is “not changed”.
